Results as given in US8178506B2, “Oligomeric compounds and compositions for use in modulation of small non-coding RNAs” (Regulus Therapeutics Inc., priority 2003, dated 2012).
Several values for one entry are separate records, joined by “and”; a condition that tells them apart may be missing. Equal entries are not always repeated. In the oligonucleotide strings, read from the 5' end, every base follows the letter of its sugar. An asterisk marks phosphorothioate; unmarked linkages are phosphodiester. Other units and linkages are bracketed, terminal groups are in braces. A string of capitals states the bases alone. e = 2'-O-(2-methoxyethyl) (MOE); [5mC] = 5-methylcytosine; d = 2'-deoxy (DNA)

Tested on: HeLa cells
Test: Cell cycle assay in HeLa cells
Format: cell-based, human
Conditions: HeLa cells
[1] = 25 nM, 48 hours, percentage of cells in phase, average of replicates
[2] = 50 nM, 48 hours, percentage of cells in phase, average of replicates
[3] = 100 nM, 48 hours, percentage of cells in phase, average of replicates
[4] = 150 nM oligomeric compound, 24 hours, relative to untreated control (UTC = 100)
[5] = 150 nM oligomeric compound, 48 hours after treatment, relative to untreated control (UTC=100)
[6] = 150 nM, 48 hours, relative to untreated control
[7] = 150 nM, 48 hours, percentage of cells in phase, average of replicates

## 328403 (antisense eA*eG*eG*e[5mC]*e[5mC]*dT*dA*dT*dT*d[5mC]*d[5mC]*dT*dG*dT*dA*eG*e[5mC]*eA*eA*eA) [compound 328403]
25 nM, 48 hours
  % cells in cell cycle phase: G2/M: 18%
[1]
  % cells in cell cycle phase: G1: 58%
  % cells in cell cycle phase: S: 24%
  % cells in cell cycle phase: aneuploid: 13%
  % cells in cell cycle phase: subG1: 1.5%
50 nM, 48 hours
  % cells in cell cycle phase: G2/M: 20%
[2]
  % cells in cell cycle phase: G1: 53%
  % cells in cell cycle phase: S: 27%
  % cells in cell cycle phase: aneuploid: 14%
  % cells in cell cycle phase: subG1: 1.1%
100 nM, 48 hours
  % cells in cell cycle phase: G2/M: 23%
[3]
  % cells in cell cycle phase: G1: 48%
  % cells in cell cycle phase: S: 29%
  % cells in cell cycle phase: aneuploid: 11%
  % cells in cell cycle phase: subG1: 3.5%
[4]
  % cells aneuploid: 53% and 82%
  % cells in cell cycle phase G1: 70% and 86%
  % cells in cell cycle phase G2/M: 197% and 179%
  % cells in cell cycle phase S: 85% and 75%
  % cells in cell cycle phase subG1: 284% and 189%
[5]
  % cells in cell cycle phase: G1: 61% and 82%
  % cells in cell cycle phase: G2/M: 131% and 106%
  % cells in cell cycle phase: S: 177% and 148%
  % cells in cell cycle phase: aneuploid: 85% and 80%
150 nM, 48 hours
  % cells in cell cycle phase: G2/M: 24%
[6]
  % cells in cell cycle phase G1: 125%
  % cells in cell cycle phase G2/M: 80%
  % cells in cell cycle phase S: 89%
  % cells in cell cycle phase aneuploid: 175%
  % cells in cell cycle phase subG1: 89%
[7]
  % cells in cell cycle phase: G1: 37%
  % cells in cell cycle phase: S: 40%
  % cells in cell cycle phase: aneuploid: 13%
  % cells in cell cycle phase: subG1: 8.2%

## 327944 (antisense eA*eA*eA*eG*eT*eG*eT*e[5mC]*eA*eG*eA*eT*eA*e[5mC]*eG*eG*eT*eG*eT*eG*eG) [compound 327944]
[4]
  % cells aneuploid: 50%
  % cells in cell cycle phase G1: 85%
  % cells in cell cycle phase G2/M: 111%
  % cells in cell cycle phase S: 110%
  % cells in cell cycle phase subG1: 165%
[5]
  % cells in cell cycle phase: G1: 75%
  % cells in cell cycle phase: G2/M: 144%
  % cells in cell cycle phase: S: 129%
  % cells in cell cycle phase: aneuploid: 78%
  % cells in cell cycle phase: subG1: 490%

## 327949 (antisense e[5mC]*eA*e[5mC]*eA*eA*eA*eT*eT*e[5mC]*eG*eG*eA*eT*e[5mC]*eT*eA*e[5mC]*eA*eG*eG*eG*eT*eA) [compound 327949]
[4]
  % cells aneuploid: 68%
  % cells in cell cycle phase G1: 82%
  % cells in cell cycle phase G2/M: 172%
  % cells in cell cycle phase S: 84%
  % cells in cell cycle phase subG1: 194%
[5]
  % cells in cell cycle phase: G1: 66%
  % cells in cell cycle phase: G2/M: 138%
  % cells in cell cycle phase: S: 157%
  % cells in cell cycle phase: aneuploid: 71%
  % cells in cell cycle phase: subG1: 773%

## 327957 (antisense e[5mC]*eA*e[5mC]*eA*eA*eG*eT*eT*e[5mC]*eG*eG*eA*eT*e[5mC]*eT*eA*e[5mC]*eG*eG*eG*eT*eT) [compound 327957]
[4]
  % cells aneuploid: 66%
  % cells in cell cycle phase G1: 91%
  % cells in cell cycle phase G2/M: 145%
  % cells in cell cycle phase S: 88%
  % cells in cell cycle phase subG1: 197%
[5]
  % cells in cell cycle phase: G1: 65%
  % cells in cell cycle phase: G2/M: 127%
  % cells in cell cycle phase: S: 169%
  % cells in cell cycle phase: aneuploid: 85%
  % cells in cell cycle phase: subG1: 864%

## 327946 (antisense eA*eG*eG*e[5mC]*eG*eA*eA*eG*eG*eA*eT*eG*eA*e[5mC]*eA*eA*eA*eG*eG*eG*eA*eA) [compound 327946]
[4]
  % cells aneuploid: 43%
  % cells in cell cycle phase G1: 90%
  % cells in cell cycle phase G2/M: 156%
  % cells in cell cycle phase S: 84%
  % cells in cell cycle phase subG1: 225%
[5]
  % cells in cell cycle phase: G1: 72%
  % cells in cell cycle phase: G2/M: 129%
  % cells in cell cycle phase: S: 150%
  % cells in cell cycle phase: aneuploid: 76%
  % cells in cell cycle phase: subG1: 431%
